# Experimental data as given in patent publication US9918990B2, “Substituted pyrrolo[2,3-c]pyridines and pyrazolo[3,4-c]pyridines as BET protein inhibitors” (Incyte Corporation, priority 2013, dated 2018).
# Where a name gives a salt, the structure may show the parent alone.
# Assays:
# BRD4-BD2 = BRD4-BD2 (Homo sapiens (Human), UniProt O60885); test: BRD4 AlphaScreen assay, BRD4-BD2; assay type: binding; details: H4Ac4 peptide, 75 min, room temperature, read-out: BRD4 BD-2 enzyme IC50
# Protocol: (§1) BRD4-BD1 and BRD4-BD2 assays were conducted in white 384-well polystyrene plate in a final volume of 20 μL for BD1 and 40 μL for BD2. Inhibitors were first serially diluted in DMSO and added to the plate wells before the addition of other reaction components. […] After plate sealing, the plate was incubated in the dark at room temperature for 75 min. before reading on a PHERAstar FS plate reader (BMG Labtech). IC50 determination was performed by fitting the curve of percent control activity versus the log of the inhibitor concentration using the GraphPad Prism 5.0 software.
# BRD4-BD1 = BRD4-BD1 (Homo sapiens (Human), UniProt O60885); test: BRD4 AlphaScreen assay, BRD4-BD1; assay type: binding; details: H4Ac4 peptide, 75 min, room temperature, read-out: BRD4 BD-1 enzyme IC50
# Protocol: as §1
# KMS.12.BM cells = test: KMS.12.BM cell viability assay (Cell Titer-GLO, ATP quantitation); assay type: cell-based; details: Homo sapiens, 72 h, 3 days, concentration required for 50% cell death, read-out: KMS cellular IC50
# Protocol: KMS.12.BM cell line (human myeloma) was purchased from JCRB (Osaka, Japan) and maintained in RPMI with 10% FBS culture medium. To measure the cytotoxic activity of the compounds through ATP quantitation, the KMS.12.BM cells are plated in the RPMI culture medium at 5000 cells/well/per 100 μL into a 96-well polystyrene clear black tissue culture plate (Greiner-bio-one through VWR, NJ), in the presence or absence of a concentration range of test compounds. After 3 days, […] Cell Titer-GLO Luminescent (Promega, Madison, Wis.) cell culture agent is added to each well for 10 minutes at room temperature to stabilize the luminescent signal. This determines the number of viable cells in culture based on quantitation of the ATP present, which signals the presence of metabolically active cells. Luminescence is measured with the Top Count 384 (Packard Bioscience through Perkin Elmer, Boston, Mass.). Compound inhibition is determined relative to cells cultured with no drug and the IC50 is reported as the compound concentration required for 50% cell death. IC50 data for the Examples is presented in Table 9 as determined by Assay B1.
Structure (SMILES),IC50 (BRD4-BD2) [µM],IC50 (BRD4-BD1) [µM],IC50 (KMS.12.BM cells) [µM]
"Cn1cc(-c2ccc3c(c2Oc2ccccc2)NC(c2ccccc2)CO3)c2cc[nH]c2c1=O (centres unmarked) [Example 110, 6-Methyl-4-(5-phenoxy-3-phenyl-3,4-dihydro-2H-1,4-benzoxazin-6-yl)-1,6-dihydro-7H-pyrrolo[2,3-c]pyridin-7-one]",< 0.1,0.1 to 1,–
"CN1C(=O)COc2ccc(-c3cn(C)c(=O)c4[nH]ccc34)c(Oc3ccccc3)c21 [Example 100, 4-Methyl-6-(6-methyl-7-oxo-6,7-dihydro-1H-pyrrolo[2,3-c]pyridin-4-yl)-5-phenoxy-2H-1,4-benzoxazin-3(4H)-one]",< 0.1,0.1 to 1,≤ 1
"C[C@@H]1CN(CCn2c(NCc3ccccc3)nc3c(Oc4ccccc4)c(-c4cn(C)c(=O)c5[nH]ccc45)ccc32)C[C@H](C)O1 [Example 71, 4-(2-(Benzylamino)-1-{2-[(2R,6S)-2,6-dimethylmorpholin-4-yl]ethyl}-4-phenoxy-1H-benzimidazol-5-yl)-6-methyl-1,6-dihydro-7H-pyrrolo[2,3-c]pyridin-7-one trifluoroacetate]",1 to 10,1 to 10,–
"CCS(=O)(=O)c1c(-c2cn(C)c(=O)c3[nH]ccc23)ccc2c1[nH]c(=O)n2C [Example 99, 4-(Ethylsulfonyl)-1-methyl-5-(6-methyl-7-oxo-6,7-dihydro-1H-pyrrolo[2,3-c]pyridin-4-yl)-1,3-dihydro-2H-benzimidazol-2-one]",0.1 to 1,1 to 10,–
"COc1c(-c2cn(C)c(=O)c3[nH]ccc23)ccc2c1n(Cc1ccccc1)c(=O)n2C [Example 44, 3-Benzyl-4-methoxy-1-methyl-5-(6-methyl-7-oxo-6,7-dihydro-1H-pyrrolo[2,3-c]pyridin-4-yl)-1,3-dihydro-2H-benzimidazol-2-one]",< 0.1,< 0.1,≤ 1
"Cn1cc(-c2ccc3c(nc(CNC(=O)C4CCC4)n3C)c2Oc2ccccc2)c2cc[nH]c2c1=O [Example 111, N-{[1-Methyl-5-(6-methyl-7-oxo-6,7-dihydro-1H-pyrrolo[2,3-c]pyridin-4-yl)-4-phenoxy-1H-benzimidazol-2-yl]methyl}cyclobutanecarboxamide]",< 0.1,< 0.1,≤ 1
"Cn1cc(-c2ccc3c([nH]c(=O)n3C)c2Sc2ccccc2)c2cc[nH]c2c1=O [Example 97, 1-Methyl-5-(6-methyl-7-oxo-6,7-dihydro-1H-pyrrolo[2,3-c]pyridin-4-yl)-4-(phenylthio)-1,3-dihydro-2H-benzimidazol-2-one]",< 0.1,< 0.1,≤ 1
"COc1c(-c2cn(C)c(=O)c3[nH]ccc23)ccc2c1n(CCc1ccccc1)c(=O)n2C [Example 49, 4-Methoxy-1-methyl-5-(6-methyl-7-oxo-6,7-dihydro-1H-pyrrolo[2,3-c]pyridin-4-yl)-3-(2-phenylethyl)-1,3-dihydro-2H-benzimidazol-2-one]",< 0.1,0.1 to 1,≤ 1
"Cn1cc(-c2ccc3c(c2OCC2CCC2)n(CCC2CCNCC2)c(=O)n3C)c2cc[nH]c2c1=O [Example 65, 4-(Cyclobutylmethoxy)-1-methyl-5-(6-methyl-7-oxo-6,7-dihydro-1H-pyrrolo[2,3-c]pyridin-4-yl)-3-(2-piperidin-4-ylethyl)-1,3-dihydro-2H-benzimidazol-2-one]",< 0.1,< 0.1,1 to 10
"C[C@@H]1CN(CCn2c(NCC3CC3)nc3c(Oc4ccccc4)c(-c4cn(C)c(=O)c5[nH]ccc45)ccc32)C[C@H](C)O1 [Example 72, 4-(2-[(Cyclopropylmethyl)amino]-1-{2-[(2R,6S)-2,6-dimethylmorpholin-4-yl]ethyl}-4-phenoxy-1H-benzimidazol-5-yl)-6-methyl-1,6-dihydro-7H-pyrrolo[2,3-c]pyridin-7-one trifluoroacetate]",< 0.1,0.1 to 1,1 to 10
"Cn1cc(-c2ccc3c(c2Oc2ccccc2)N(Cc2ccccc2)C(=O)CO3)c2cc[nH]c2c1=O [Example 101, 4-Benzyl-6-(6-methyl-7-oxo-6,7-dihydro-1H-pyrrolo[2,3-c]pyridin-4-yl)-5-phenoxy-2H-1,4-benzoxazin-3(4H)-one]",0.1 to 1,0.1 to 1,–
"CCOc1c(-c2cn(C)c(=O)c3[nH]ccc23)c(C)nc2cc(C)nn12 [Example 73, 4-(7-Ethoxy-2,5-dimethylpyrazolo[1,5-a]pyrimidin-6-yl)-6-methyl-1,6-dihydro-7H-pyrrolo[2,3-c]pyridin-7-one]",0.1 to 1,1 to 10,–
"Cn1cc(-c2ccc3c(c2Oc2ccccc2)N(CCN2CCOCC2)C(=O)CO3)c2cc[nH]c2c1=O [Example 102, 6-(6-Methyl-7-oxo-6,7-dihydro-1H-pyrrolo[2,3-c]pyridin-4-yl)-4-(2-morpholin-4-ylethyl)-5-phenoxy-2H-1,4-benzoxazin-3(4H)-one trifluoroacetate]",< 0.1,0.1 to 1,–

# Now from value to molecule, other results behind:
IC50 (BRD4-BD2) [µM],IC50 (BRD4-BD1) [µM],Structure (SMILES),IC50 (KMS.12.BM cells) [µM]
< 0.1,< 0.1,"CCSc1c(-c2cn(C)c(=O)c3[nH]ccc23)ccc2c1[nH]c(=O)n2C [Example 98, 4-(Ethylthio)-1-methyl-5-(6-methyl-7-oxo-6,7-dihydro-1H-pyrrolo[2,3-c]pyridin-4-yl)-1,3-dihydro-2H-benzimidazol-2-one]",≤ 1
< 0.1,0.1 to 1,"Cn1cc(-c2cc(CNCC3CC3)c3[nH]c(=O)[nH]c3c2Oc2ccc(F)cc2F)c2cc[nH]c2c1=O [Example 81, 7-{[(Cyclopropylmethyl)amino]methyl}-4-(2,4-difluorophenoxy)-5-(6-methyl-7-oxo-6,7-dihydro-1H-pyrrolo[2,3-c]pyridin-4-yl)-1,3-dihydro-2H-benzimidazol-2-one]",≤ 1
< 0.1,< 0.1,"Cn1cc(-c2ccc3c(c2OCC2CCC2)n(CCc2ccccc2)c(=O)n3C)c2cc[nH]c2c1=O [Example 63, 4-(Cyclobutylmethoxy)-1-methyl-5-(6-methyl-7-oxo-6,7-dihydro-1H-pyrrolo[2,3-c]pyridin-4-yl)-3-(2-phenylethyl)-1,3-dihydro-2H-benzimidazol-2-one]",≤ 1
0.1 to 1,0.1 to 1,"Cn1cnc2c(Oc3ccc(F)cc3F)c(-c3c[nH]c(=O)c4[nH]ccc34)ccc21 [Example 82, 4-[4-(2,4-Difluorophenoxy)-1-methyl-1H-benzimidazol-5-yl]-1,6-dihydro-7H-pyrrolo[2,3-c]pyridin-7-one]",–
< 0.1,0.1 to 1,"CCn1cc(-c2ccc3c(ncn3C)c2Oc2ccc(F)cc2F)c2cc[nH]c2c1=O [Example 83, 4-[4-(2,4-Difluorophenoxy)-1-methyl-1H-benzimidazol-5-yl]-6-ethyl-1,6-dihydro-7H-pyrrolo[2,3-c]pyridin-7-one]",≤ 1
< 0.1,0.1 to 1,"Cn1cc(-c2cc(CNCCN3CCOCC3)c3[nH]c(=O)[nH]c3c2Oc2ccc(F)cc2F)c2cc[nH]c2c1=O [Example 79, 4-(2,4-Difluorophenoxy)-5-(6-methyl-7-oxo-6,7-dihydro-1H-pyrrolo[2,3-c]pyridin-4-yl)-7-{[(2-morpholin-4-ylethyl)amino]methyl}-1,3-dihydro-2H-benzimidazol-2-one]",1 to 10
< 0.1,< 0.1,"CN(C)C(=O)Cn1cnc2ccc(-c3cn(C)c(=O)c4[nH]ccc34)c(Oc3ccc(F)cc3F)c21 [Example 33, 2-[7-(2,4-Difluorophenoxy)-6-(6-methyl-7-oxo-6,7-dihydro-1H-pyrrolo[2,3-c]pyridin-4-yl)-1H-benzimidazol-1-yl]-N,N-dimethylacetamide]",≤ 1
0.1 to 1,1 to 10,"Cn1cnc2c(Oc3ccc(F)cc3F)c(-c3cn(CC#N)c(=O)c4[nH]ccc34)ccc21 [Example 85, {4-[4-(2,4-Difluorophenoxy)-1-methyl-1H-benzimidazol-5-yl]-7-oxo-1,7-dihydro-6H-pyrrolo[2,3-c]pyridin-6-yl}acetonitrile trifluoroacetate]",–
< 0.1,0.1 to 1,"COc1c(-c2cn(C)c(=O)c3[nH]ccc23)ccc2c1n(CCN1CCOCC1)c(=O)n2C [Example 50, 4-Methoxy-1-methyl-5-(6-methyl-7-oxo-6,7-dihydro-1H-pyrrolo[2,3-c]pyridin-4-yl)-3-(2-morpholin-4-ylethyl)-1,3-dihydro-2H-benzimidazol-2-one]",–
0.1 to 1,1 to 10,"Cn1cnc2c(Oc3ccc(F)cc3F)c(-c3cn(Cc4ccccc4)c(=O)c4[nH]ccc34)ccc21 [Example 84, 6-Benzyl-4-[4-(2,4-difluorophenoxy)-1-methyl-1H-benzimidazol-5-yl]-1,6-dihydro-7H-pyrrolo[2,3-c]pyridin-7-one trifluoroacetate]",–
